The nature of data set [1]: Toxicity in human HT-29 cells xenografted Balb/c mouse assessed as change in body weight at 5 mg/kg/day, ip administrated for every other day and measured after 6 days. The data set is classed as organism-based. The following applies: in vivo, 144 h, time 6 day. (In general: In xenograft studies the graft and the host belong to different species.)
In data set [2] the test system is HT-29. Description: Inhibition of colony formation in human HT-29 cells at 6 uM incubated for 14 days by crystal violet staining based colony formation assay. The data set is classed as functional, cell-based. The following applies: time 14.0 day.
Data set [3] addresses Epidermal growth factor receptor (Homo sapiens) (UniProt P00533). As to the kind of experiment: Inhibition of EGFR in human HT-29 cells assessed as reduction in ratio of p-EGFR/EGFR level at 15 uM measured after 3 to 15 hrs by Western blotting analysis. The data set is classed as cell-based. The following applies: time 3-15 hrs. For orientation: Immunoblotting shows a protein as a band on a membrane.

Data set [4] has the same target. Description: Inhibition of EGFR in human HT-29 cells assessed as reduction in Erk1/2 phosphorylation level at 15 uM by Western blot analysis. The data set is classed as cell-based. The following applies: time 3-15 hrs, TDE = time-dependent effect.
The target of data set [5] is Receptor tyrosine-protein kinase erbB-2 (Homo sapiens) (UniProt P04626). Description: Inhibition of HER2 in human HT-29 cells at 15 uM by Western blot analysis. The data set is classed as cell-based. The following applies: time 3-15 hrs, TDE = time-dependent effect.
Data set [6] has as its system HT-29. As to the kind of experiment: Inhibition of colony formation in double EGFR/HER2 knockdown human HT-29 cells at 6 uM incubated for 14 days by crystal violet staining based colony formation assay. The data set is classed as functional, cell-based. The following applies: time 14.0 day.
A short description of data set [7]: Toxicity in human HT-29 cells xenografted Balb/c mouse assessed as change in lung pathology at 5 mg/kg/day, ip administrated for every other day and measured after 28 days. The data set is classed as organism-based. The following applies: in vivo, 672 h, time 28 day.
In data set [8] the target is Epidermal growth factor receptor (Homo sapiens) (UniProt P00533). Description: Inhibition of EGFR in human HT-29 cells assessed as reduction in STAT3 phosphorylation level at 3.75 to 15 uM incubated for 24 hrs by Western blot analysis. The following applies: dose 3.75-15 µM. The data set is classed as cell-based.
For data set [9] the target is unchanged. Description: Inhibition of EGFR in human HT-29 cells assessed as reduction in MEK1/2 phosphorylation level at 15 uM by Western blot analysis. The data set is classed as cell-based. The following applies: time 3-15 hrs, TDE = time-dependent effect.
Data set [10] shares this target. As to the kind of experiment: Inhibition of EGFR in human HT-29 cells assessed as reduction in MEK1/2 phosphorylation level at 3.75 to 15 uM incubated for 24 hrs by Western blotting analysis. The data set is classed as cell-based. The following applies: dose 3.75-15 µM.
Data set [11] deals with HT-29. Description: Inhibition of colony formation in HER2 knockdown human HT-29 cells at 0.75 uM incubated for 14 days by crystal violet staining based colony formation assay. The data set is classed as functional, cell-based. The following applies: time 14.0 day.
The subject of data set [12] is HT-29. As to the kind of experiment: Inhibition of colony formation in EGFR knockdown human HT-29 cells at 0.75 uM incubated for 14 days by crystal violet staining based colony formation assay. Type of data set: functional, cell-based. The following applies: time 14.0 day.
Data set [13] addresses Epidermal growth factor receptor (Homo sapiens) (UniProt P00533). Description: Inhibition of EGFR in human SW480 cells assessed as reduction in STAT3 phosphorylation level at 0.5 to 2 uM incubated for 24 hrs by Western blot analysis. The data set is classed as cell-based. The following applies: dose 0.5-2 µM.
Data set [14] deals with SW480. Description: Inhibition of colony formation in EGFR knockdown human SW480 cells at 0.75 uM incubated for 14 days by crystal violet staining based colony formation assay. Type of data set: functional, cell-based. The following applies: time 14.0 day.
Data set [15] addresses Epidermal growth factor receptor (Homo sapiens) (UniProt P00533). Description: Inhibition of EGFR in human HT-29 cells assessed as reduction in ratio of p-EGFR/EGFR level at 2 uM measured after 3 to 15 hrs by Western blot analysis. The data set is classed as cell-based. The following applies: time 3-15 hrs.
Data set [16] deals with HT-29. Description: Inhibition of colony formation in human HT-29 cells at 0.75 uM incubated for 14 days by crystal violet staining based colony formation assay. The data set is classed as functional, cell-based. The following applies: time 14.0 day.
Data set [17] has as its system SW480. Description: Inhibition of colony formation in double EGFR/HER2 knockdown human SW480 cells at 0.75 uM incubated for 14 days by crystal violet staining based colony formation assay. The data set is classed as functional, cell-based. The following applies: time 14.0 day.

Active and inactive are the calls of the source. The rule behind the calls is not given here.

Sequence of Epidermal growth factor receptor (Homo sapiens) (P00533 whole entry): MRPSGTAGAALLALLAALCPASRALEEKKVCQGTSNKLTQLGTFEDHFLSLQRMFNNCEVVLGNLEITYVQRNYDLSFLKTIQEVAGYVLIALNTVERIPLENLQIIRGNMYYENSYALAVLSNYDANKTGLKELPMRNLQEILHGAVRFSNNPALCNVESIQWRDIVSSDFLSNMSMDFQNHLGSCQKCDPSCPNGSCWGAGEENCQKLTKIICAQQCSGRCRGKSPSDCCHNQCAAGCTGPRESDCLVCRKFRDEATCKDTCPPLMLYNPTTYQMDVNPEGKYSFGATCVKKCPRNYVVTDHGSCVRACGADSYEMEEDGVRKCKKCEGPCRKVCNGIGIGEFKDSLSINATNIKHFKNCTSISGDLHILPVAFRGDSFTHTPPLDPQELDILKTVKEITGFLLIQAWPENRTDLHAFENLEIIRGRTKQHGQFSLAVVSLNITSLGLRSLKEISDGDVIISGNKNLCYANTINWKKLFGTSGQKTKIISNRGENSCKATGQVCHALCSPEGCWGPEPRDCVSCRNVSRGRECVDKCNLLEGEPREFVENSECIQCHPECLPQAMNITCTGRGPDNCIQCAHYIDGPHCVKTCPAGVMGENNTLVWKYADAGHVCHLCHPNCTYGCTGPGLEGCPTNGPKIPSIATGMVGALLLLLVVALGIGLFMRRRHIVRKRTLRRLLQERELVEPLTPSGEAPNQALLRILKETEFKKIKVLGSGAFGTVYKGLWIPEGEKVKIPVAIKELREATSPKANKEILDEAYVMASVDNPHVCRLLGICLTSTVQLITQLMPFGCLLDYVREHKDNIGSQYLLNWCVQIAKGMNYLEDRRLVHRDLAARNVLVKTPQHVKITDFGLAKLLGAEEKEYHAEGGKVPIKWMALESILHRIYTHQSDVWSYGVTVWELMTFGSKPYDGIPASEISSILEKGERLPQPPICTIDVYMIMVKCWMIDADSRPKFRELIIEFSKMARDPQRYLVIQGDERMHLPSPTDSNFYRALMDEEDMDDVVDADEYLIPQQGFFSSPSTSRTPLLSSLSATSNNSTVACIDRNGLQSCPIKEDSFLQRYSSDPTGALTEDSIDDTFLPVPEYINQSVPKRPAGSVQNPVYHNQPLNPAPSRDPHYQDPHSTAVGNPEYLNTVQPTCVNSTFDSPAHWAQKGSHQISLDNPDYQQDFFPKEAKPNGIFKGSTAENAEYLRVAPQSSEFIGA
Sequence of Receptor tyrosine-protein kinase erbB-2 (Homo sapiens) (P04626 whole entry): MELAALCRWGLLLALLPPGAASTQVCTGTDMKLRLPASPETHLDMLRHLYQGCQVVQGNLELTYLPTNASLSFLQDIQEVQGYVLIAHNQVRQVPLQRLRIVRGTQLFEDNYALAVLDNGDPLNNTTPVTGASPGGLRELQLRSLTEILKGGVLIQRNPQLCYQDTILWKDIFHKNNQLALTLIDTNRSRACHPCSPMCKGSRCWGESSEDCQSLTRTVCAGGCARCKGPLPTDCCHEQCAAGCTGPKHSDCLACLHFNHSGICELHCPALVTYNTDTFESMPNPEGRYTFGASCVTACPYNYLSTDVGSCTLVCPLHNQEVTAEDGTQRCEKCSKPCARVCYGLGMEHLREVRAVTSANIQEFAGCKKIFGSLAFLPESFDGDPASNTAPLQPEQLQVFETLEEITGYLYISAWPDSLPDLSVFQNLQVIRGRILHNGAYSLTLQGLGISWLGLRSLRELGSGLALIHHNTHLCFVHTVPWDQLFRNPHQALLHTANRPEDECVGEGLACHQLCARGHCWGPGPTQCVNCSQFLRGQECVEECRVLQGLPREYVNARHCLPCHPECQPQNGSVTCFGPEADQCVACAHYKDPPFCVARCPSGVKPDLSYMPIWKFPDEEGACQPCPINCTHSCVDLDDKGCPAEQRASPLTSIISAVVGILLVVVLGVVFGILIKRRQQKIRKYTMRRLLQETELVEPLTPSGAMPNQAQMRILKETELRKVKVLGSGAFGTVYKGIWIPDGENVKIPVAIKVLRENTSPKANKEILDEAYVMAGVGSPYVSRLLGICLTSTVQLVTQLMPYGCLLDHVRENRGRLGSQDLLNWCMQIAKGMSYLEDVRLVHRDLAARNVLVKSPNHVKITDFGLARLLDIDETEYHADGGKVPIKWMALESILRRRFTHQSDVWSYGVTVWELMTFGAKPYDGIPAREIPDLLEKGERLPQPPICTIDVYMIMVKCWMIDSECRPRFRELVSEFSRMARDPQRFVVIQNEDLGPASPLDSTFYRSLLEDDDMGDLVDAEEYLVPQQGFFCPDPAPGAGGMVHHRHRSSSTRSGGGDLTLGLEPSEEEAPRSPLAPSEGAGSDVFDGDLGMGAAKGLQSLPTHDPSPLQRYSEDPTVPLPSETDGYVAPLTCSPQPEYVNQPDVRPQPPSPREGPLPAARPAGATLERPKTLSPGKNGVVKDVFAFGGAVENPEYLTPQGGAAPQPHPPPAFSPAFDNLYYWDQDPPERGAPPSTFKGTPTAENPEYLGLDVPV

Turning to `CC[C@H]1CCC[C@H](O[C@H]2CC[C@H](N(C)C)[C@@H](C)O2)[C@@H](C)C(=O)C2=C[C@@H]3[C@@H](C=C[C@@H]4C[C@@H](O[C@@H]5O[C@@H](C)[C@H](OC)[C@@H](OC)[C@H]5OC)C[C@@H]34)[C@@H]2CC(=O)O1` [SPINOSYN A], the Activity entry in data set [1] and in data set [7] was “Non-Toxic” each time. In addition, the inhibition entry in [2], in [3], in data set [8] and in data set [10] was “Active” each time. The inhibition result in data set [4], in data set [5] and in data set [9] was “Tde” throughout. In addition, the result in [6] was inactive.

On to `CC[C@H]1CCC[C@H](O[C@H]2CC[C@H](N(C)CC(O)CN3CCNCC3)[C@@H](C)O2)[C@@H](C)C(=O)C2=C[C@@H]3[C@@H](C=C[C@@H]4C[C@@H](O[C@@H]5O[C@@H](C)[C@H](OC)[C@@H](OC)[C@H]5OC)C[C@@H]34)[C@@H]2CC(=O)O1` (some centres not stated), for which the outcome in data set [11], in [12], in data set [14] and in data set [17] was inactive. The inhibition result in data set [13], in data set [15] and in [16] was “Active” in each case.

The values above are taken from ChEMBL document CHEMBL5390209, “Spinosyn A and Its Derivative Inhibit Colorectal Cancer Cell Growth via the EGFR Pathway” (J Nat Prod, 2023).
